Source: paper PMC12523804, “Evaluation of molecular mechanisms of (Z)-3-(pentadec-10′-enyl)-catechol (litreol) and synthetic derivatives as inhibitors of human leukotriene biosynthesis” (Redox Biology, 2025)

Assays:
p38 MAPK = test: Western blot of p38 MAPK phosphorylation; type: cell-based, human; conditions: for fMLP-induced activation (phosphorylation) of p38 MAP kinase: PMNL, 1 μM compound, 1 μM fMLP
Description: (§1) Human polymorphonuclear leukocytes (PMNLs; 50 × 10^6), isolated from whole blood, were resuspended in 1 mL of cold PGC buffer. Briefly, neutrophils were pre-incubated for 15 min at 37 °C with test compounds (1 μM). […] The samples were subsequent centrifuged (1200g, 10 min) and the pellets were resuspended in 100 μL od SDS-PAGE loading buffer (2x) (Tris 1 M pH 8, EDTA 0.2 M, 10 % SDS, 10 % mercaptoethanol). Correct protein loading on the gels and transfer of proteins to the nitrocellulose membrane were confirmed by Ponceau staining. Membranes with transferred proteins were incubated overnight with primary antibodies in 1x Tris Buffered Saline (TBS) with 1 % Casein (Biorad- #1610782). Membranes were then washed and incubated with horseradish peroxidase-conjugated secondary antibodies for 1 h at room temperature. Blots were developed using enhanced chemiluminescence detection reagents ECL (Immobilion ECL Ultra Western HRP Substrate - Cat# WBULS0500 Millipore) and acquired using ChemiDoc Imaging System (BioRad). Antibody recognizing phosphorylated p38-MAPkinase, pERK, ERK, NfKB were from Cell Signalling Technology (Boston, MA) and used at 1:1000 dilution. Secondary antibodies were purchased from Biorad (170–6515; 170–6516) and used at 1:2000 diluition.

NF-κB = test: Western blot of NF-κB; type: cell-based; conditions: LPS stimulation
Description: as §1

SMILES	phosphorylation and expression of p38 MAPK (Western blot) (p38 MAPK; LPS stimulation)	fMLP-induced activation (phosphorylation) of p38 MAP kinase (p38 MAPK)	NF-κB expression (Western blot) (NF-κB)
CCCC/C=C\CCCCCCCCCc1cccc(O)c1O [CI, (Z)-3-(pentadec-10′-enyl)-catechol]	significantly inhibited	inhibited	most pronounced effect
CCCCCCCCCCCCCCCc1cccc(O)c1O [CS, 3-n-pentadecylcatechol]		did not show significant effects	
